Source: patent US20240158392A1 (Janssen Biotech, Inc., priority 2021, published 2024)
Read-outs that look alike come from different tables or passages of the source.

Molecular target: SIK2 (Homo sapiens, UniProt Q9H0K1)
Assay: SIK2 Enzymatic Assay High Version 2 (High ATP)
Format: biochemical
Procedure, shortened: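 At room temperature, enzyme (6 nM, 2× final) was preincubated with compound for 30 min, then 6 mM ATP and 400 μM HDAC5tide (both 2× final) were added for 2 h. ADP formed was measured by ADP-Glo Max (2 h reagent, 1 h detection) using luminescence.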

[1] = enzyme 6 nM, 6 mM ATP and 400 μM HDAC5tide (each 2× final concentration), 30 minutes pre-incubation, 2 hours, ADP-Glo Max luminescence, read-out: SIK2 high ATP IC50 (μM) (Test Example 2)

SIK2, sequence (Q9H0K1 whole entry, species assumed): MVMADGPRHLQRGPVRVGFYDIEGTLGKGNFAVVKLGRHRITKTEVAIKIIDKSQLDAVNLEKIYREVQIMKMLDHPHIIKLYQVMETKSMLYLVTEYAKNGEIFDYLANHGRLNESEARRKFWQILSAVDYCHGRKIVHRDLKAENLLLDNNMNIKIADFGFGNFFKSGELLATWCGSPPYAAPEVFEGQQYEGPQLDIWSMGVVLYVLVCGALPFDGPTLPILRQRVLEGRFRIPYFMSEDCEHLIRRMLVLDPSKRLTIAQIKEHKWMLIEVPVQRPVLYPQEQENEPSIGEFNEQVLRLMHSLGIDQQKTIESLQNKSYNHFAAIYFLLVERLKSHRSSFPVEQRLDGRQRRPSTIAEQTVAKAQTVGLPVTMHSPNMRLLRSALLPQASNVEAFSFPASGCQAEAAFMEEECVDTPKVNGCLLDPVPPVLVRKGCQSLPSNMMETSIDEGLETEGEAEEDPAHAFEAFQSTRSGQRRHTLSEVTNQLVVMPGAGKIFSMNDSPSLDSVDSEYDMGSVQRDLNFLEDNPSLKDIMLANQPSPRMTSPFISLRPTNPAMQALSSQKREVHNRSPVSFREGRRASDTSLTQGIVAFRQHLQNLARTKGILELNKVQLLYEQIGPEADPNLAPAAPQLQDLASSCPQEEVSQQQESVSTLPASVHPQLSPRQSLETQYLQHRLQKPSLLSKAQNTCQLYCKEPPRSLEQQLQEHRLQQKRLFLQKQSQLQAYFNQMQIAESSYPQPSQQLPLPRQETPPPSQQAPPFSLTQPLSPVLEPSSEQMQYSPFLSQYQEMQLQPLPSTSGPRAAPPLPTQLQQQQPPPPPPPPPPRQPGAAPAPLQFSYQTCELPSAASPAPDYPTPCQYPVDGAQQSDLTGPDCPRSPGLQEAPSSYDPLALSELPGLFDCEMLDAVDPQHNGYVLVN

SMILES | IC50 [1] [µM] | IC50 [µM]
Cc1cc(-c2ccn3nc(Nc4ccc(C5CC5)nn4)cc3c2)c(OC[C@@]23CN[C@@H](CO2)C3)cn1 [Example 255, N-(6-cyclopropylpyridazin-3-yl)-5-[2-methyl-5-[[(1R,4R)-5-oxa-2-azabicyclo[2.2.1]heptan-4-yl]methoxy]-4-pyridyl]pyrazolo[1,5-a]pyridin-2-amine] | 0.00704 | 
Cc1cc(-c2ccn3nc(Nc4cncc(C)n4)cc3c2)c(OC[C@H]2OCC[C@@H]2O)cn1 [Example 297, (2R,3S)-2-[[6-methyl-4-[2-[(6-methylpyrazin-2-yl)amino]pyrazolo[1,5-a]pyridin-5-yl]-3-pyridyl]oxymethyl]tetrahydrofuran-3-ol] | 0.00781 | 
Cc1cc(-c2ccn3nc(Nc4cc(C(F)(F)F)nn4C)cc3c2)c(O[C@H]2C[C@H]3COC[C@@H](C2)N3C)cn1 [Example 174, N-(1-methyl-3-(trifluoromethyl)-1H-pyrazol-5-yl)-5-(2-methyl-5-(((1R,5S,7s)-9-methyl-3-oxa-9-azabicyclo[3.3.1]nonan-7-yl)oxy)pyridin-4-yl)pyrazolo[1,5-a]pyridin-2-amine] |  | 0.108
CC#Cc1cc(-c2ccn3nc(NC(=O)C4CC4)cc3c2)c(O[C@H]2CCNC2)cn1 [Example 280, N-[5-[2-prop-1-ynyl-5-[(3S)-pyrrolidin-3-yl]oxy-4-pyridyl]pyrazolo[1,5-a]pyridin-2-yl]cyclopropanecarboxamide] | 0.0032 | 
CCC1(COc2cnc(C)cc2-c2ccn3nc(Nc4cc(C)nc(C)n4)cc3c2)COC1 [Example 273, N-(2,6-dimethylpyrimidin-4-yl)-5-[5-[(3-ethyloxetan-3-yl)methoxy]-2-methyl-4-pyridyl]pyrazolo[1,5-a]pyridin-2-amine] | 0.037 | 
Cc1cc(-c2ccn3nc(Nc4cnc5cc[nH]c5n4)cc3c2)c(O[C@H]2CC[C@H](O)CC2)cn1 [Example 289, 4-[[6-methyl-4-[2-(5H-pyrrolo[2,3-b]pyrazin-3-ylamino)pyrazolo[1,5-a]pyridin-5-yl]-3-pyridyl]oxy]cyclohexanol] | 0.00114 | 
CNC(=O)c1c(OC)cc(Nc2cc3cc(-c4cc(C)ncc4OC4C[C@H]5COC[C@@H](C4)N5)ccn3n2)cc1OC (stereo partly drawn) [Example 357, 2,6-dimethoxy-N-methyl-4-[[5-[2-methyl-5-[[(1S,5R)-3-oxa-9-azabicyclo[3.3.1]nonan-7-yl]oxy]-4-pyridyl]pyrazolo[1,5-a]pyridin-2-yl]amino]benzamide] |  | 0.00101

Now from value to compound, other results behind:

IC50 [1] [µM] | SMILES | IC50 [µM]
0.0322 | Cc1cc(-c2ccn3nc(Nc4cc(C)nc(C)n4)cc3c2)c(O[C@@H]2CCS(=O)(=O)N(C)C2)cn1 (single isomer, unassigned) [Example 354, (*R)—N-(2,6-dimethylpyrimidin-4-yl)-5-[2-methyl-5-(2-methyl-1,1-dioxo-thiazinan-4-yl)oxy-4-pyridyl]pyrazolo[1,5-a]pyridin-2-amine] | 
0.00411 | CC(C)(C#N)COc1cnc(OC(F)F)cc1-c1ccn2nc(Nc3ccc(C(C)(C)O)nn3)cc2c1 [Example 712, 3-[[6-(difluoromethoxy)-4-[2-[[6-(1-hydroxy-1-methyl-ethyl)pyridazin-3-yl]amino]pyrazolo[1,5-a]pyridin-5-yl]-3-pyridyl]oxy]-2,2-dimethyl-propanenitrile] | 
0.0838 | Cc1cc(-c2ccn3nc(Nc4cc(C)nc(C)n4)cc3c2)c(O[C@H]2CC[C@H](C#N)CC2)cn1 [Example 581, (1r,4r)-4-((4-(2-((2,6-dimethylpyrimidin-4-yl)amino)pyrazolo[1,5-a]pyridin-5-yl)-6-methylpyridin-3-yl)oxy)cyclohexane-1-carbonitrile] | 
0.038 | N#CCN1CC[C@@H](COc2cnc(C#N)cc2-c2ccn3nc(NC(=O)C4CC4)cc3c2)C1 [Example 563, N-[5-[2-cyano-5-[[(3R)-1-(cyanomethyl)pyrrolidin-3-yl]methoxy]-4-pyridyl]pyrazolo[1,5-a]pyridin-2-yl]cyclopropanecarboxamide] | 
